Results as given in US8110550B2, “HDAC inhibitors and hormone targeted drugs for the treatment of cancer” (University of Maryland, Baltimore, priority 2007, dated 2012).
“Also recorded” adds a separate entry of the source. Where two headings read alike, the source gives them in different places. Values belong to the compound of their own block, whether it stands above or below them.

How the values were obtained:
Hs 578T = test: MTT cell proliferation assay, Hs 578T; format: cell-based; details: Her-2 status +, read-out: IC50 values for inhibition of ER-cell proliferation, Hs 578T
Protocol: (§1) MTT assay was performed to measure viability of breast cancer cells after treatment with various test compounds (Sabnis et al. 2005). IC50 and IC25 values for inhibitors is calculated from the linear regression line of the plot of percentage inhibition versus log inhibitor concentration. These IC50 values is used for combination or sequencing studies. The effect of combination or sequence of treatment is determined at IC25 of each agent.
(§2) Exemplary ER negative cell lines (MDA-MB-231) were used. For a cell proliferation assay, 10^4 cells were plated in a 96 well plate and treated with indicated drugs for 6 days. The medium was replaced after 3 days. On day 7, 500 μg/ml of MTT solution was added to each well and cells incubated for 3 hours. The tetrazolium dye trapped inside the mitochondria of the cells was dissolved in DMSO and the absorbance was measured at 560 nm.

[1] = tested on: ERα, aromatase and androgen receptor; test: Western blotting of xenograft tumors; format: in vivo, mice; details: MDA-MB-231 xenograft tumors
Protocol: (§3) Expression of ER and aromatase proteins was examined by Western blotting. β-actin was used as a loading control. The radiometric ^3H2O release assay for aromatase activity was performed as follows: the tumors were homogenized using ice-cold DPBS and the homogenate was used for the aromatase assay. ^3H2O release assay was performed using [1β^3H] androstenedione (Specific activity 23.5 Ci/mmole). The activity of the enzyme is corrected for protein concentration in the tumor homogenates.

ER- MDA-MB-231 cells = test: MTT cell viability / proliferation assay, MDA-MB-231; format: cell-based
Protocol: as §1, with “IC50” for “MTT assay was performed to measure viability of breast cancer cells after treatment with various test compounds (Sabnis et al. 2005). IC50”
as §2, with “For” for “Exemplary ER negative cell lines (MDA-MB-231) were used. For”

aromatase (CYP19) = test: Western immunoblotting for aromatase protein expression in MDA-MB-231 cells; format: cell-based; details: 24 hour treatment
Description: (§4) Expression of ER and Aromatase proteins was examined by Western blotting. β-actin was used as a loading control.

aromatase [2] = test: 3H2O release assay for aromatase activity in tumor homogenates; format: in vivo, mice; details: MDA-MB-231 xenograft tumors
Protocol: as §3

SKBr3 = test: MTT cell proliferation assay, SKBr3; format: cell-based; details: Her-2 status ++++, read-out: IC50 values for inhibition of ER-cell proliferation, SKBr3
Protocol: as §1, with “IC50” for “MTT assay was performed to measure viability of breast cancer cells after treatment with various test compounds (Sabnis et al. 2005). IC50”
as §2, with “For” for “Exemplary ER negative cell lines (MDA-MB-231) were used. For”

ERα = test: Western immunoblotting for ERα protein expression in MDA-MB-231 cells; format: cell-based; details: 10 nM
Description: Protein expression of other ER inducible genes such as c-Myc and PgR can also be examined.
as §4

MDA-MB-231 xenografts = MDA-MB-231 xenografts in female ovariectomized nude mice; format: in vivo
Protocol: The tumors of MDA-MB-231 cells were grown in female ovariectomized nude mice. Sub-confluent cells were collected into Citric Saline, centrifuged and resuspended in Matrigel (10 mg/mL) at ˜2.5×10^7 cells/mL. Each mouse received subcutaneous inoculations in two sites per flank with 100 μL of cell suspension. Mice were then injected subcutaneously daily with 0.3% HPC in 0.9% NaCl (vehicle) until the tumors reached a measurable size (˜150 mm^3). At this point the mice were grouped such that the starting tumor volumes were not statistically different across the groups. The mice were injected with indicated agents (5× weekly) for indicated time. The tumors were measured weekly with calipers and the tumor volumes were calculated using the formula (4/3)πr1^2r2(r1≦r2).

aromatase [3] = test: Radiometric 3H2O release assay for aromatase activity in MDA-MB-231 cells; format: cell-based; parameters: aromatase activity: dose or concentration left out as unconfirmed; details: for aromatase activity after pre-treatment: MDA-MB-231 cells
Protocol: The aromatase activity assay was described by Yue et al. (1997). The expression and activation of aromatase was seen after treatment with HDACi. […] This up-regulation of aromatase activity was dose dependent.
150,000 cells were plated in IMEM without PR with 5% steroid free serum, 1% penicillin-streptomycin and 750 μg/ml G418. Next day the cells were incubated with 0.5 μCi of [1β^3H] androstenedione (Specific activity 23.5 Ci/mmole) in 1 ml of media containing 1% charcoal stripped serum for 18 hours. The medium was then collected and treated with TCA (trichloroacetic acid) to precipitate proteins. The residual steroids in the medium were extracted and removed with chloroform and further treated with a 2.5% charcoal suspension. The ^3H2O in the supernatant was measured using a scintillation counter. In this assay ^3H2O is released during conversion of [1β^3H] Δ4A to estrone, catalyzed by the enzyme aromatase. For pre-treatment studies, cells were plated as described above and then next day pre-treated with indicated agent for 24 hours before incubating with [1β^3H] Δ4A for 18 hours. The activity of the enzyme is corrected for protein concentration in the cells plated and treated.

[4] = Homo sapiens, MDA-MB-231, Her-2 status −, read-out: IC50 values for inhibition of ER-cell proliferation, MDA-MB-231

IC50 (ER- MDA-MB-231 cells; MDA-MB-231 cells, single agent, read-out: IC50, growth inhibition): 0.0817 µM
IC50 (SKBr3): 6.82e-05 µM
Compound: N-(2-aminophenyl)-4-(N-(pyridin-3-ylmethoxycarbonyl)aminomethyl) benzamide [MS-275]
IC50 (Hs 578T): 0.0281 µM
expression of ERα, aromatase and androgen receptor in tumors [1]: upregulates
growth inhibitory effect (ER- MDA-MB-231 cells; MDA-MB-231 cells, single agent): significantly inhibited
expression of aromatase up-regulated (aromatase (CYP19); 10 nM): 2.6 fold
intra-tumoral aromatase activity (aromatase [2]): upregulates intra-tumoral aromatase activity
protein expression of ERα up-regulated (ERα): 8 fold
growth of MDA-MB-231 xenografts (MDA-MB-231 xenografts; 5x weekly dosing): inhibits growth of MDA-MB-231 xenografts
effectiveness by route of administration (MDA-MB-231 xenografts; oral versus other route): more effective when given orally
uterine weight (MDA-MB-231 xenografts; ovariectomized mice, bioassay for estrogenic/antiestrogenic effects): does not affect the uterine weight
aromatase activity after pre-treatment (aromatase [3]): upregulated
aromatase activity (aromatase [3]; then 1β-3H-androstenedione 18 hours, basal 3.02): 15.193 pmoles/μg of protein/hour

Compound: CC(C)(C#N)c1cc(Cn2cncn2)cc(C(C)(C)C#N)c1 [anastrozole]
growth inhibitory effect (ER- MDA-MB-231 cells; MDA-MB-231 cells, single agent): refractory

IC50 (ER- MDA-MB-231 cells; [4]): 20300 µM
IC50 (ER- MDA-MB-231 cells; Homo sapiens, MDA-MB-231, MDA-MB-231 cells, single agent, read-out: IC50, inhibition of cell growth): 20300 µM
IC50 (SKBr3; Homo sapiens, SK-BR-3): 17.2 µM
Compound: CCCC(=O)O [BA, butyric acid]
IC50 (Hs 578T; Homo sapiens, Hs-578T): 67900 µM
growth inhibitory effect (ER- MDA-MB-231 cells; MDA-MB-231 cells, single agent): inhibited
expression of aromatase up-regulated (aromatase (CYP19); 1 μM): 1.2 fold
aromatase activity after pre-treatment (aromatase [3]): upregulated

Compound: C=C1C[C@@H]2[C@H](CC[C@]3(C)C(=O)CC[C@@H]23)[C@@]2(C)C=CC(=O)C=C12 [exemestane]
growth inhibitory effect (ER- MDA-MB-231 cells; MDA-MB-231 cells, single agent): refractory

IC50 (ER- MDA-MB-231 cells; [4]): 97.8 µM
IC50 (SKBr3; Homo sapiens, SK-BR-3): 8.52 µM
Compound: CC(=O)Nc1ccc(C(=O)Nc2ccccc2N)cc1 [CJ-994, 4-acetylamino-N-(2′-aminophenyl)-benzamide]
IC50 (Hs 578T; Homo sapiens, Hs-578T): 0.122 µM

Compound: C[C@]12CC[C@@H]3c4ccc(O)cc4C[C@@H](CCCCCCCCC[S+]([O-])CCCC(F)(F)C(F)(F)F)[C@H]3[C@@H]1CC[C@@H]2O (stereo partly drawn) [fulvestrant]
growth inhibitory effect (ER- MDA-MB-231 cells; MDA-MB-231 cells, single agent): refractory

Compound: O=C(CCCCCCC(=O)Nc1ccccc1)NO [SAHA, N′-hydroxy-N-phenyl-octanediamide]
IC50 (Hs 578T; Homo sapiens, Hs-578T): 0.0169 µM
expression of aromatase up-regulated (aromatase (CYP19); 10 nM): 1.77 fold
protein expression of ERα up-regulated (ERα): 9.9 fold
aromatase activity after pre-treatment (aromatase [3]): upregulated

Compound: CC/C(=C(\c1ccccc1)c1ccc(OCCN(C)C)cc1)c1ccccc1 [tamoxifen]
growth inhibitory effect (ER- MDA-MB-231 cells; MDA-MB-231 cells, single agent): refractory

IC50 (ER- MDA-MB-231 cells; Homo sapiens, MDA-MB-231, MDA-MB-231 cells, combined with MS-275 (0.1 nM), read-out: IC50 of letrozole for cell growth inhibition): 0.0154 µM
IC50 (ER- MDA-MB-231 cells; Homo sapiens, MDA-MB-231, MDA-MB-231 cells, combined with SAHA, read-out: IC50 of letrozole for cell growth inhibition): 1.13 µM
Compound: N#Cc1ccc(C(c2ccc(C#N)cc2)n2cncn2)cc1 [letrozole]
cell growth inhibition in combination (ER- MDA-MB-231 cells; MDA-MB-231 cells, letrozole combined with MS-275 (0.1 nM)): synergistically inhibit cell growth in a dose dependent manner
cell growth inhibition in combination (ER- MDA-MB-231 cells; MDA-MB-231 cells, letrozole combined with SAHA): synergistically inhibit cell growth in a dose dependent manner
growth inhibitory effect (ER- MDA-MB-231 cells; MDA-MB-231 cells, single agent): refractory; also recorded: did not inhibit growth
